# Experimental data: article PMC9318133 (International Journal of Molecular Sciences, 2022)
# Key:
# mouse CB1 receptors = biological target: T1, mouse CB1 receptors (Mus musculus, UniProt P47746); set-up: method as in PMID 27527584, PMID 25769232; details: read-out: Mouse Cortex Membranes CB1 Ki; [3H]-CP-55,940 competition binding; mean ± SEM; data elaborated from ref [15],[33]; cited from earlier work
# T1 construct: membranes from the mouse brain and spleen were used, respectively; from tissue
# T1 sequence (P47746 whole entry): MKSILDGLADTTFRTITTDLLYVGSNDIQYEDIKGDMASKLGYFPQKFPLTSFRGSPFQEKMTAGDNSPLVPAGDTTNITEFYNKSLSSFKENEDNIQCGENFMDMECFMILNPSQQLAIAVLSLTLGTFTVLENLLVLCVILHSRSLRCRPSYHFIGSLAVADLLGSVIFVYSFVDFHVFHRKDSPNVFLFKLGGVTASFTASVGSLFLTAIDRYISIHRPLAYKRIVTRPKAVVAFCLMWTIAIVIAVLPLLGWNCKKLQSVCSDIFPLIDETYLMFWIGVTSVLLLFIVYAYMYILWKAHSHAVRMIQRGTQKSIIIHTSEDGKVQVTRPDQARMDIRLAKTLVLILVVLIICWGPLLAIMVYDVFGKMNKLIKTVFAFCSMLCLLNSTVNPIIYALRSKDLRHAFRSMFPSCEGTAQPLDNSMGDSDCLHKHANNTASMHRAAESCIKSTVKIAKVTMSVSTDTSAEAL
# CD-1 mice = assay: Visual placing response test; assay type: in vivo, mouse
SMILES,Ki (mouse CB1 receptors) [nM],"effect on visual placing response (CD-1 mice; 0.01–30 mg/kg i.p., monitored over 5 h)","ED50 (CD-1 mice; Mus musculus, ip, mice, ED50 + SEM) [mg/kg]",lowest dose tested with significant inhibitory effect on visual placing response (CD-1 mice; i.p.) [mg/kg]
"CCCCCn1cc(C(=O)c2cccc3ccccc23)c2ccccc21 [JWH-018, 1-naphthalenyl(1-pentyl-1H-indol-3-yl)-methanone]",5.82 ± 0.44,–,–,–
"CCCCCn1cc(Cc2cccc3ccccc23)c2ccccc21 [JWH-175, 3-(1-naphthalenylmethyl)-1-pentyl-1H-indole]",–,dose-dependently reduced the visual placing response,5.2 ± 0.08,0.01
